According to PubChem BioAssay AID248 (DTP/NCI, 2004):
Values joined by “and” are separate entries in the source; they are usually repeats but may differ in a detail not shown here. Equal values may be shown once. Inconclusive results and toxic doses are left out. Rule as the data show it: active = T/C of 150% or more; inactive = T/C below 125%.

System: L1210 leukemia ip in BDF1 mice, survival T/C
Experiment: NCI In Vivo Anticancer Drug Screen. Data for tumor model L1210 Leukemia (intraperitoneal) in B6D2F1 (BDF1) mice
Settings: higher = longer survival
In short: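 Each compound was tested against a transplantable tumor grown in mice. The endpoint was survival, with treated animals benchmarked against vehicle controls as a simple ratio.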

[1] = endpoint: mean survival time, dose: 50.0 mg/kg/injection, schedule: Q01DX009 (ip), vehicle: saline with Tween-80
[2] = endpoint: mean survival time, dose: 100.0 mg/kg/injection, schedule: Q01DX009 (ip), vehicle: saline with Tween-80
[3] = endpoint: mean survival time, dose: 100.0 mg/kg/injection, schedule: Q04DX003 (ip), vehicle: saline with Tween-80
[4] = endpoint: mean survival time, dose: 100.0 mg/kg/injection, schedule: Q04DX003 (ip), vehicle: saline
[5] = endpoint: mean survival time, dose: 200.0 mg/kg/injection, schedule: Q04DX003 (ip), vehicle: saline with Tween-80
[6] = endpoint: mean survival time, dose: 200.0 mg/kg/injection, schedule: Q04DX003 (ip), vehicle: saline
[7] = endpoint: mean survival time, dose: 400.0 mg/kg/injection, schedule: Q04DX003 (ip), vehicle: saline with Tween-80
[8] = endpoint: mean survival time, dose: 400.0 mg/kg/injection, schedule: Q04DX003 (ip), vehicle: saline
[9] = endpoint: mean survival time, dose: 100.0 mg/kg/injection, schedule: Q01DX009 (ip), vehicle: Klucel (hydroxypropylcellulose) (HPC)
[10] = endpoint: mean survival time, dose: 200.0 mg/kg/injection, schedule: Q01DX009 (ip), vehicle: Klucel (hydroxypropylcellulose) (HPC)
[11] = endpoint: mean survival time, dose: 400.0 mg/kg/injection, schedule: Q01DX009 (ip), vehicle: Klucel (hydroxypropylcellulose) (HPC)
[12] = endpoint: mean survival time, dose: 100.0 mg/kg/injection, schedule: Q04DX003 (ip), vehicle: Klucel (hydroxypropylcellulose) (HPC)
[13] = endpoint: mean survival time, dose: 200.0 mg/kg/injection, schedule: Q04DX003 (ip), vehicle: Klucel (hydroxypropylcellulose) (HPC)
[14] = endpoint: mean survival time, dose: 200.0 mg/kg/injection, schedule: Q01DX009 (ip), vehicle: saline with Tween-80
[15] = endpoint: mean survival time, dose: 400.0 mg/kg/injection, schedule: Q01DX009 (ip), vehicle: saline with Tween-80
[16] = endpoint: mean survival time, dose: 100.0 mg/kg/injection, schedule: Q04DX002 (ip), vehicle: Klucel (hydroxypropylcellulose) (HPC)
[17] = endpoint: mean survival time, dose: 200.0 mg/kg/injection, schedule: Q04DX002 (ip), vehicle: Klucel (hydroxypropylcellulose) (HPC)
[18] = endpoint: mean survival time, dose: 400.0 mg/kg/injection, schedule: Q04DX002 (ip), vehicle: Klucel (hydroxypropylcellulose) (HPC)
[19] = endpoint: mean survival time, dose: 100.0 mg/kg/injection, schedule: Q01DX001 (ip), vehicle: saline
[20] = endpoint: mean survival time, dose: 200.0 mg/kg/injection, schedule: Q01DX001 (ip), vehicle: saline
[21] = endpoint: mean survival time, dose: 400.0 mg/kg/injection, schedule: Q01DX001 (ip), vehicle: saline

Measured: T/C

CCC(C#N)C1=CCCCCC1 (stereo unspecified)
inactive: endpoint: mean survival time, dose: 12.5 mg/kg/injection, schedule: Q04DX003 (ip), vehicle: saline with Tween-80 103 % of control | endpoint: mean survival time, dose: 25.0 mg/kg/injection, schedule: Q01DX009 (ip), vehicle: saline with Tween-80 97 % of control | endpoint: mean survival time, dose: 25.0 mg/kg/injection, schedule: Q04DX003 (ip), vehicle: saline with Tween-80 97 % of control and 101 % of control | [1] 102 % of control | endpoint: mean survival time, dose: 50.0 mg/kg/injection, schedule: Q04DX003 (ip), vehicle: saline with Tween-80 110 % of control | [2] 107 % of control | [3] 101 % of control

CCCCCCCCCCCCCCCCOc1cccc(OCc2ccccc2)c1
inactive: endpoint: mean survival time, dose: 100.0 mg/kg/injection, schedule: Q04DX003 (ip), vehicle: DMSO 88 % of control | endpoint: mean survival time, dose: 200.0 mg/kg/injection, schedule: Q04DX003 (ip), vehicle: DMSO 98 % of control | endpoint: mean survival time, dose: 400.0 mg/kg/injection, schedule: Q04DX003 (ip), vehicle: DMSO 93 % of control

O=C1OC2CC3CC2C1C3C(=O)N1CCCCC1 (stereo unspecified)
inactive: [3] 115 % of control | [4] 98 % of control | [5] 100 % of control | [6] 96 % of control | [7] 100 % of control | [8] 96 % of control

Cc1cc(=O)c2cc(-c3ccccc3)ccc2[nH]1
inactive: [4] 100 % of control | [6] 92 % of control | [8] 90 % of control

CC1(C)CN=C(c2cccc([N+](=O)[O-])c2)O1
inactive: [9] 98 % of control | [10] 105 % of control | [11] 100 % of control

O=C(O)CS(=O)(=O)c1ccccc1
inactive: [4] 95 % of control | [6] 105 % of control

Brc1ccc2[nH]c3c(c2c1)CSc1ccccc1-3
inactive: [3] 105 % of control | [5] 99 % of control | [7] 103 % of control

NCCCC1C2CCC(C2)C1CN (stereo unspecified)
inactive: endpoint: mean survival time, dose: 100.0 mg/kg/injection, schedule: Q04DX002 (ip), vehicle: alcohol 98 % of control

N#CC1CNC(=S)N=C1c1ccccc1 (stereo unspecified)
inactive: [12] 100 % of control | [13] 95 % of control

O=C(COc1cc(Cl)c(Cl)cc1Cl)NO
inactive: endpoint: mean survival time, dose: 50.0 mg/kg/injection, schedule: Q01DX009 (ip), vehicle: Klucel (hydroxypropylcellulose) (HPC) 98 % of control | [9] 104 % of control | [12] 101 % of control | [10] 112 % of control | [13] 101 % of control

CN1C2CCC1CC(OC(=O)c1ccccc1)C2 (stereo unspecified)
inactive: endpoint: mean survival time, dose: 25.0 mg/kg/injection, schedule: Q04DX002 (ip), vehicle: saline with Tween-80 94 % of control | endpoint: mean survival time, dose: 50.0 mg/kg/injection, schedule: Q04DX002 (ip), vehicle: saline with Tween-80 105 % of control | endpoint: mean survival time, dose: 100.0 mg/kg/injection, schedule: Q04DX002 (ip), vehicle: saline with Tween-80 94 % of control

S=c1cc[nH]c2[nH]ncc12
inactive: endpoint: mean survival time, dose: 100.0 mg/kg/injection, schedule: Q04DX002 (ip), vehicle: DMSO 94 % of control | endpoint: mean survival time, dose: 200.0 mg/kg/injection, schedule: Q04DX002 (ip), vehicle: DMSO 97 % of control

NNC(=O)c1ccccc1Nc1ccc(Br)cc1
inactive: [9] 94 % of control | [12] 94 % of control | [10] 93 % of control | [13] 94 % of control | [11] 86 % of control | endpoint: mean survival time, dose: 400.0 mg/kg/injection, schedule: Q04DX003 (ip), vehicle: Klucel (hydroxypropylcellulose) (HPC) 96 % of control

Cc1ccc(NS(=O)(=O)c2ccc3ccccc3c2)c(C)c1
inactive: [2] 106 % of control | [3] 89 % of control | [14] 112 % of control | [5] 102 % of control | [15] 107 % of control | [7] 89 % of control

COc1cc(/C=C2\C(=O)NC(=O)N(c3ccccc3)C2=O)cc(OC)c1OC
inactive: [1] 101 % of control | [2] 100 % of control

O=C(/C=C/c1ccccc1)c1ccccc1O
inactive: [2] 89 % of control | [3] 100 % of control | [14] 86 % of control | [5] 98 % of control | [15] 94 % of control | [7] 98 % of control

O=C(OCc1ccccc1CN1CCOCC1)c1ccc([N+](=O)[O-])cc1
inactive: [16] 105 % of control | [17] 98 % of control | [18] 98 % of control

Nc1[nH]c(=O)ncc1F
inactive: endpoint: mean survival time, dose: 100.0 mg/kg/injection, schedule: Q01DX001 (ip), vehicle: carboxymethylcellulose (CMC) 97 % of control | [19] 102 % of control | endpoint: mean survival time, dose: 100.0 mg/kg/injection, schedule: Q01DX009 (ip), vehicle: carboxymethylcellulose (CMC) 98 % of control | endpoint: mean survival time, dose: 200.0 mg/kg/injection, schedule: Q01DX001 (ip), vehicle: carboxymethylcellulose (CMC) 104 % of control | [20] 102 % of control | endpoint: mean survival time, dose: 200.0 mg/kg/injection, schedule: Q01DX009 (ip), vehicle: carboxymethylcellulose (CMC) 103 % of control | [21] 100 % of control | endpoint: mean survival time, dose: 400.0 mg/kg/injection, schedule: Q01DX009 (ip), vehicle: carboxymethylcellulose (CMC) 103 % of control | endpoint: mean survival time, dose: 800.0 mg/kg/injection, schedule: Q01DX001 (ip), vehicle: saline 102 % of control | endpoint: mean survival time, dose: 800.0 mg/kg/injection, schedule: Q01DX009 (ip), vehicle: carboxymethylcellulose (CMC) 104 % of control | endpoint: median survival time, dose: 31.2 mg/kg/injection, schedule: Q03HX024 (ip), vehicle: water 100 % of control | endpoint: median survival time, dose: 62.5 mg/kg/injection, schedule: Q03HX024 (ip), vehicle: water 100 % of control | endpoint: median survival time, dose: 125.0 mg/kg/injection, schedule: Q03HX024 (ip), vehicle: water 100 % of control | endpoint: median survival time, dose: 250.0 mg/kg/injection, schedule: Q03HX024 (ip), vehicle: water 105 % of control | endpoint: median survival time, dose: 250.0 mg/kg/injection, schedule: Q04DX003 (ip), vehicle: water 100 % of control | endpoint: median survival time, dose: 500.0 mg/kg/injection, schedule: Q04DX003 (ip), vehicle: water 100 % of control | endpoint: median survival time, dose: 1000.0 mg/kg/injection, schedule: Q04DX003 (ip), vehicle: water 100 % of control

CCOC(=O)NC1CCc2ccccc21 (stereo unspecified)
inactive: [19] 98 % of control | [20] 104 % of control | [21] 93 % of control

CSc1nc(N)cc(C(N)=O)n1
inactive: endpoint: mean survival time, dose: 100.0 mg/kg/injection, schedule: Q01DX Z (ip), vehicle: methylcellulose (MC) 101 % of control

O=C(CCCC(=O)N/N=C/c1cccc([N+](=O)[O-])c1)N/N=C\c1cccc([N+](=O)[O-])c1
inactive: endpoint: mean survival time, dose: 50.0 mg/kg/injection, schedule: Q01DX001 (ip), vehicle: saline 101 % of control | [19] 95 % of control | [20] 95 % of control | [21] 91 % of control

Cc1ccc(S(=O)(=O)N/N=C2/CC(C)(C)CC(=O)C2(C)C)cc1
inactive: [16] 102 % of control | [17] 102 % of control | [18] 102 % of control
